This note sets out measurements from ChEMBL document CHEMBL3621096, “Discovery of Potent and Selective Inhibitors for ADAMTS-4 through DNA-Encoded Library Technology (ELT)” (ACS Med Chem Lett, 2015).

Each structure is given as a SMILES string.

This assay addresses T1, A disintegrin and metalloproteinase with thrombospondin motifs 4 (Homo sapiens, UniProt O75173).
T1 sequence (O75173 whole entry): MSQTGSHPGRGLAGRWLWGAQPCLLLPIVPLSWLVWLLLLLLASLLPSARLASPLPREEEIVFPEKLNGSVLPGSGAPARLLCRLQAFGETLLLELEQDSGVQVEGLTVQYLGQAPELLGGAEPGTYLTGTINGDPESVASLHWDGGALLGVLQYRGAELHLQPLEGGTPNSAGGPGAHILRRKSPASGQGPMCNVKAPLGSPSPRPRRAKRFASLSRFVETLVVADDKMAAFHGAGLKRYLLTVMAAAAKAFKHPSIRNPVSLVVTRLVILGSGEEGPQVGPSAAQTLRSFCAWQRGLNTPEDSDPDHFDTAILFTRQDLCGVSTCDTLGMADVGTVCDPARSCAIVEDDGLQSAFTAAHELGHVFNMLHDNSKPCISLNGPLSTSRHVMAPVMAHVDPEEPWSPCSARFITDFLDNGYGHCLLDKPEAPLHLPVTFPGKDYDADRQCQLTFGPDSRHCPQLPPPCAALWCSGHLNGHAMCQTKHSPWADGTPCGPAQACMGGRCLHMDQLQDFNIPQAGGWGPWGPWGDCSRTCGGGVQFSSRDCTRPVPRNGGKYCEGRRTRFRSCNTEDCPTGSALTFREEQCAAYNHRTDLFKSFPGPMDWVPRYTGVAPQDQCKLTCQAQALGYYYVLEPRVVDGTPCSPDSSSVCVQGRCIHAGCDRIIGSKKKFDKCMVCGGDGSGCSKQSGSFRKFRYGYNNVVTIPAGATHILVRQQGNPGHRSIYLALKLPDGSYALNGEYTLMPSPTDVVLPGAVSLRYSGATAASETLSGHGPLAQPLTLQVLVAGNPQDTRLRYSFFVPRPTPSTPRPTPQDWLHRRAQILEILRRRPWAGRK
Kind of assay: Inhibition of recombinant human ADAMTS4 (213 to 575 amino acid residues) using WAAG-3R as substrate preincubated for 15 mins followed by substrate addition measured every 30 secs for 1 hr.
In the case of `CCN(C(=O)c1ccc(CNc2ncnc(N3Cc4ccccc4C3)n2)cc1)c1cccc(C)c1`, the IC50 (as a rule, the concentration at which inhibition is half-maximal) is 5600 nM.
In the case of `CCN(C(=O)c1ccc(CNc2ncnc(NCc3ccc(OC)c(OC)c3)n2)cc1)c1cccc(C)c1` it was 158 nM; in that of `CCN(C(=O)c1ccc(CNc2ncnc(N3CCCCC3)n2)cc1)c1cccc(C)c1`, greater than 10000 nM.
For the molecule `CCN(C)C(=O)c1ccc(CNc2nc(N3CCN(C)CC3)nc(N3CCc4ccccc4C3)n2)cc1`, the IC50 turned out to be 5500 nM.
With `CCN(C(=O)c1ccc(CNc2nc(NC(C)C)nc(N3CCc4cc(OC)c(OC)cc4C3)n2)cc1)c1cccc(C)c1`, the IC50 was 60 nM.
In the case of `CCN(C(=O)c1ccc(CNc2nc(O)nc(N3CCc4cc(OC)c(OC)cc4C3)n2)cc1)c1cccc(C)c1` it was 22 nM; in that of `CCN(C(=O)c1ccc(CNc2nc(NCc3ccccc3)nc(N3CCc4cc(OC)c(OC)cc4C3)n2)cc1)c1cccc(C)c1`, 60 nM; in that of `CCN(C(=O)c1ccc(CNc2nc(NCCN3CCN(C)CC3)nc(N3CCc4ccccc4C3)n2)cc1)c1cccc(C)c1`, 6 nM.
In the case of `CNC(=O)c1ccc(CNc2nc(NCCN3CCN(C)CC3)nc(N3CCc4cc(OC)c(OC)cc4C3)n2)cc1` it was 3000 nM.
In the case of `CCN(C(=O)c1ccc(CNc2nc(NCCc3ccco3)nc(N3CCc4cc(OC)c(OC)cc4C3)n2)cc1)c1cccc(C)c1` it was 163 nM.
Turning to `CCN(C(=O)c1ccc(CNc2nc(NC3CCCCC3)nc(N3CCc4cc(OC)c(OC)cc4C3)n2)cc1)c1cccc(C)c1`, the IC50 was 284 nM.
For the molecule `CCN(C)C(=O)c1ccc(CNc2nc(N3CCN(C)CC3)nc(N3CCc4cc(OC)c(OC)cc4C3)n2)cc1`, the IC50 was determined as 8500 nM.
Turning to `CCN(C(=O)c1ccc(CNc2ncnc(N3CCc4ccc(F)cc4C3)n2)cc1)c1cccc(C)c1`, the concentration for half-maximal inhibition (IC50) was found to be 333 nM.
As for `CCN(C(=O)c1ccc(CNc2nc(Cl)nc(N3CCc4cc(OC)c(OC)cc4C3)n2)cc1)c1cccc(C)c1`, the concentration for half-maximal inhibition (IC50) stood at 102 nM.
In the case of `COc1cc2c(cc1OC)CN(c1nc(NCCN3CCN(C)CC3)nc(NCc3ccc(C(=O)Nc4cccc(C)c4)cc3)n1)CC2`, the IC50 amounted to 518 nM.
For the molecule `CCN(C(=O)c1ccc(CNc2ncnc(N3CCc4cc(OC)c(OC)cc4C3)n2)cc1)c1cccc(C)c1`, the IC50 is 23 nM.
Turning to `CCN(C(=O)c1ccc(CNc2nc(NCC(=O)O)nc(N3CCc4cc(OC)c(OC)cc4C3)n2)cc1)c1cccc(C)c1`, the IC50 amounted to 88 nM.
To `CCN(C(=O)c1ccc(CNc2ncnc(N3CCc4cc(F)ccc4C3)n2)cc1)c1cccc(C)c1` belongs 370 nM.
As to `CCN(C(=O)c1ccc(CNc2nc(Nc3ccccc3)nc(N3CCc4cc(OC)c(OC)cc4C3)n2)cc1)c1cccc(C)c1`, the IC50 turned out to be 181 nM.
In the case of `CCN(C)C(=O)c1ccc(CNc2nc(NCCN(C)C)nc(N3CCc4ccccc4C3)n2)cc1` it was 43 nM.
To `CCN(C(=O)c1ccc(CNc2nc(NCCN(C)C)nc(N3CCc4cc(OC)c(OC)cc4C3)n2)cc1)c1cccc(C)c1` belongs 14 nM; to `CCN(C)C(=O)c1ccc(CNc2nc(NCCN(C)C)nc(N3CCc4cc(OC)c(OC)cc4C3)n2)cc1`, 81 nM.
With `CCN(C)C(=O)c1ccc(CNc2ncnc(N3CCc4ccccc4C3)n2)cc1`, the IC50 was determined as 1700 nM.
To `CCN(C(=O)c1ccc(CNc2nc(NCCN(C)C)nc(N3CCc4ccccc4C3)n2)cc1)c1cccc(C)c1` belongs 8 nM; to `COc1cc2c(cc1OC)CN(c1nc(NCCN3CCN(C)CC3)nc(NCc3ccccc3)n1)CC2`, 3000 nM.
To `CCN(C(=O)c1ccc(CNc2nc(NCc3ccccc3)nc(N3CCc4ccccc4C3)n2)cc1)c1cccc(C)c1` belongs 61 nM; to `CCN(C)C(=O)c1ccc(CNc2ncnc(N3CCc4cc(OC)c(OC)cc4C3)n2)cc1`, 1820 nM.
To `CCN(C(=O)c1ccc(CNc2ncnc(N3CCc4ccccc4C3)n2)cc1)c1cccc(C)c1` belongs 63 nM; to `CCN(C(=O)c1ccc(CNc2nc(NC)nc(N3CCc4cc(OC)c(OC)cc4C3)n2)cc1)c1cccc(C)c1`, 30 nM.
`COc1cc2c(cc1OC)CN(c1nc(NCCN3CCN(C)CC3)nc(NCc3ccc(C(=O)O)cc3)n1)CC2`: the IC50 was greater than 10000 nM.
With `CCN(C)C(=O)c1ccc(CNc2nc(NCCN3CCN(C)CC3)nc(N3CCc4cc(OC)c(OC)cc4C3)n2)cc1`, the IC50 turned out to be 64 nM.
Turning to `CCN(C(=O)c1ccc(CNc2nc(NCCN3CCN(C)CC3)nc(N3CCCc4ccccc43)n2)cc1)c1cccc(C)c1`, the 50% inhibitory concentration (IC50) is 6500 nM.
